ChEMBL document CHEMBL1201862, “PubChem BioAssay data set” (2004)
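Tested at 5 concentrations; 48 h exposure; 96-well plates; endpoints linearly interpolated, else capped at highest concentration. GI50 is the concentration that inhibits growth by half.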 Calls of active or inactive are those of the source. Cut-off read from the data, not from the text of the source: active = GI50 up to about 1.1 µM and inactive = higher.

Assays:
Assay in all cases: NCI-60 cell line screen, 48 h
K562 = test system: K562
XF498 = test system: XF498
OVCAR-8 = test system: OVCAR-8
NCI/ADR-RES = test system: NCI/ADR-RES
OVCAR-3 = test system: OVCAR-3
HOP-62 = test system: HOP-62
A549 = test system: A549
SK-MEL-28 = test system: SK-MEL-28
KM12 = test system: KM12
U-251 = test system: U-251
SW-620 = test system: SW-620
SN12C = test system: SN12C
OVCAR-5 = test system: OVCAR-5
SF-268 = test system: SF-268
DMS-273 = test system: DMS-273
SK-OV-3 = test system: SK-OV-3
DLD-1 = test system: DLD-1
A498 = test system: A498
HOP-92 = test system: HOP-92
MCF7 = test system: MCF7
HT-29 = test system: HT-29
CCRF-CEM = test system: CCRF-CEM
UACC-62 = test system: UACC-62
HOP-18 = test system: HOP-18
NCI-H522 = test system: NCI-H522
EKVX = test system: EKVX
KM-20L2 = test system: KM-20L2
COLO 205 = test system: COLO 205
SNB-75 = test system: SNB-75
M19-MEL = test system: M19-MEL
CAKI-1 = test system: CAKI-1
SNB-19 = test system: SNB-19
Malme-3M = test system: Malme-3M
SK-MEL-2 = test system: SK-MEL-2
HCT-116 = test system: HCT-116
DMS-114 = test system: DMS-114
SF-539 = test system: SF-539
IGROV-1 = test system: IGROV-1
UO-31 = test system: UO-31
RPMI-8226 = test system: RPMI-8226
MOLT-4 = test system: MOLT-4
HCC 2998 = test system: HCC 2998
NCI-H23 = test system: NCI-H23
SK-MEL-5 = test system: SK-MEL-5
HCT-15 = test system: HCT-15
OVCAR-4 = test system: OVCAR-4
NCI-H226 = test system: NCI-H226
RXF 393 = test system: RXF 393
UACC-257 = test system: UACC-257
HL-60 = test system: HL-60
SF-295 = test system: SF-295
NCI-H460 = test system: NCI-H460
LOX IMVI = test system: LOX IMVI
786-0 = test system: 786-0
SR = test system: SR
ACHN = test system: ACHN
TK-10 = test system: TK-10
M14 = test system: M14
LXFL 529 = test system: LXFL 529

CCCC[S+]([O-])CC(CO)NC(=O)/C=C/c1c(C)[nH]c(=O)[nH]c1=O (stereo unspecified)
GI50 (K562): 8.97 µM (inactive) | GI50 (XF498): 4.18 µM (inactive) | GI50 (OVCAR-8): 6.73 µM (inactive) | GI50 (NCI/ADR-RES): 12.4 µM (inactive) | GI50 (OVCAR-3): 5 µM (inactive) | GI50 (HOP-62): 8.93 µM (inactive) | GI50 (A549): 10.8 µM (inactive) | GI50 (SK-MEL-28): 6.5 µM (inactive) | GI50 (KM12): 5.64 µM (inactive) | GI50 (U-251): 4.03 µM (inactive) | GI50 (SW-620): 16.5 µM (inactive) | GI50 (SN12C): 5.92 µM (inactive) | GI50 (OVCAR-5): 14.7 µM (inactive) | GI50 (SF-268): 2.42 µM (inactive) | GI50 (DMS-273): 9.75 µM (inactive) | GI50 (SK-OV-3): 10.7 µM (inactive) | GI50 (DLD-1): 12.1 µM (inactive) | GI50 (A498): 7.8 µM (inactive) | GI50 (HOP-92): 11.8 µM (inactive) | GI50 (MCF7): 8.67 µM (inactive) | GI50 (HT-29): 14.8 µM (inactive) | GI50 (CCRF-CEM): 6.65 µM (inactive) | GI50 (UACC-62): 7.52 µM (inactive) | GI50 (HOP-18): 31.6 µM (inactive) | GI50 (NCI-H522): 5.77 µM (inactive) | GI50 (EKVX): 8.47 µM (inactive) | GI50 (KM-20L2): 5.64 µM (inactive) | GI50 (COLO 205): 16.7 µM (inactive) | GI50 (SNB-75): 6.85 µM (inactive) | GI50 (M19-MEL): 2.22 µM (inactive) | GI50 (CAKI-1): 18.9 µM (inactive) | GI50 (SNB-19): 4.89 µM (inactive) | GI50 (Malme-3M): 3.14 µM (inactive) | GI50 (SK-MEL-2): 6.34 µM (inactive) | GI50 (HCT-116): 10 µM (inactive) | GI50 (DMS-114): 6.41 µM (inactive) | GI50 (SF-539): 7.38 µM (inactive) | GI50 (IGROV-1): 7.29 µM (inactive) | GI50 (UO-31): 13.3 µM (inactive) | GI50 (RPMI-8226): 9.02 µM (inactive) | GI50 (MOLT-4): 8.3 µM (inactive) | GI50 (HCC 2998): 8.28 µM (inactive) | GI50 (NCI-H23): 7.98 µM (inactive) | GI50 (SK-MEL-5): 4.3 µM (inactive) | GI50 (HCT-15): 31.8 µM | GI50 (OVCAR-4): 0.203 µM (active) | GI50 (NCI-H226): 11.7 µM (inactive) | GI50 (RXF 393): 11 µM (inactive) | GI50 (UACC-257): 11 µM (inactive) | GI50 (HL-60): 7.23 µM (inactive) | GI50 (SF-295): 8.38 µM (inactive) | GI50 (NCI-H460): 3.12 µM (inactive) | GI50 (LOX IMVI): 7.62 µM (inactive)

CC(=O)OC1CCn2nnc(CO[Si](C)(C)C(C)(C)C)c21 (stereo unspecified)
GI50 (K562): > 100 µM (inactive) | GI50 (XF498): > 100 µM (inactive) | GI50 (OVCAR-8): > 100 µM (inactive) | GI50 (OVCAR-3): > 100 µM (inactive) | GI50 (A549): > 100 µM (inactive) | GI50 (786-0): > 100 µM (inactive) | GI50 (SK-MEL-28): > 100 µM (inactive) | GI50 (KM12): > 100 µM (inactive) | GI50 (U-251): > 100 µM (inactive) | GI50 (SW-620): > 100 µM (inactive) | GI50 (SN12C): > 100 µM (inactive) | GI50 (OVCAR-5): > 100 µM (inactive) | GI50 (SR): > 100 µM (inactive) | GI50 (DMS-273): > 100 µM (inactive) | GI50 (SK-OV-3): > 100 µM (inactive) | GI50 (DLD-1): > 100 µM (inactive) | GI50 (ACHN): > 100 µM (inactive) | GI50 (TK-10): > 100 µM (inactive) | GI50 (HT-29): > 100 µM (inactive) | GI50 (HOP-18): > 100 µM (inactive) | GI50 (NCI-H522): > 100 µM (inactive) | GI50 (EKVX): > 100 µM (inactive) | GI50 (KM-20L2): > 100 µM (inactive) | GI50 (COLO 205): > 100 µM (inactive) | GI50 (SNB-75): 21 µM (inactive) | GI50 (CAKI-1): > 100 µM (inactive) | GI50 (SNB-19): > 100 µM (inactive) | GI50 (Malme-3M): > 100 µM (inactive) | GI50 (SK-MEL-2): > 100 µM (inactive) | GI50 (HCT-116): > 100 µM (inactive) | GI50 (M14): > 100 µM (inactive) | GI50 (DMS-114): > 100 µM (inactive) | GI50 (SF-539): > 100 µM (inactive) | GI50 (IGROV-1): > 100 µM (inactive) | GI50 (UO-31): > 100 µM (inactive) | GI50 (RPMI-8226): > 100 µM (inactive) | GI50 (MOLT-4): > 100 µM (inactive) | GI50 (HCC 2998): > 100 µM (inactive) | GI50 (NCI-H23): > 100 µM (inactive) | GI50 (SK-MEL-5): > 100 µM (inactive) | GI50 (HCT-15): > 100 µM | GI50 (OVCAR-4): > 100 µM (inactive) | GI50 (NCI-H226): > 100 µM (inactive) | GI50 (RXF 393): > 100 µM (inactive) | GI50 (UACC-257): > 100 µM (inactive) | GI50 (LXFL 529): > 100 µM (inactive) | GI50 (SF-295): > 100 µM (inactive) | GI50 (NCI-H460): > 100 µM (inactive)
